This assay relates to Wnt/β-catenin cell signalling pathway (downstream target gene Axin2). Put plainly: Axin2 expression (qPCR) in cells in medium conditioned with particles. The class given is cell-based. The following applies: 25 mM LiCl, 17IA4 cells. How it is done: Biological activity of released lithium was measured by monitoring activation of Wnt/β-catenin cell signalling pathway by measuring the expression of the pathway's well-known downstream target gene Axin2. The experiment was done with cell medium conditioned with corresponding batch of nanoparticles. Known amounts of LipSi nanoparticles were pelleted with a centrifuge and sterile supernatant was removed. Nanoparticles were dried under tissue culture hood. Cell medium (αMEM supplemented with 10% FBS, 1% antibiotic/antimycotic solution and 25 mM HEPES) was added onto pellet and particles were redispersed with ultrasound. Concentrations of the particles were 0.8 mg/ml (FIG. 6a) and 1.6 mg/ml (FIG. 6b). Vials were incubated in thermoshaker at 37° C. for four days. Particles were centrifuged down and supernatant was collected under sterile conditions. Conditioned medium (supernatant) was filtered with 0.22 μm syringe filter.
20,000 cells/cm^2 of mesenchymal cells (17IA4) were seeded onto 24 well plate. Cells were incubated approximately for 24 hours until 80% confluent and the normal medium was changed to conditioned. Cells were incubated (37° C., 5% CO2) in conditioned medium for 24 h. […] Reported fold changes represent Axin2 expression in the sample compared to Axin2 expression in medium and they are calculated with ΔΔCt method as known in the art.
In general terms: Quantitative PCR measures a nucleic acid by following its amplification.

For `[Cl-].[Li+]` [LiCl, lithium chloride], the “increase of Axin2 expression compared to medium” value (experiment of FIG. 6a (with SS9)) was 3.2 fold and the “increase of Axin2 expression compared to medium” value (experiment of FIG. 6b (with SS19)) amounted to 2.6 fold.

The values are drawn from patent publication US20230286816A1, “LITHIATED SILICON” (KING'S COLLEGE LONDON, priority 2020, published 2023).
